The subject of experiment [1] is LTB4 production in human whole blood. Nature of the experiment: LTB4 production inhibition assay in human whole blood (calcimycin-stimulated). The note with it: heparinized human whole blood, 15 min 37° C., calcimycin 20 μM 30 min, plasma LTB4 by HTRF. In kind it is cell-based. Put shortly: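 Heparinized human whole blood preincubated with compound 15 min at 37° C, then stimulated with calcimycin (20 μM final) for 30 min at 37° C. Plasma LTB4 measured by antibody-based homogeneous time-resolved fluorescence.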

A further experiment concerns the target T1, human LTA4 hydrolase (Homo sapiens, UniProt P09960).
T1 sequence (P09960 1-611): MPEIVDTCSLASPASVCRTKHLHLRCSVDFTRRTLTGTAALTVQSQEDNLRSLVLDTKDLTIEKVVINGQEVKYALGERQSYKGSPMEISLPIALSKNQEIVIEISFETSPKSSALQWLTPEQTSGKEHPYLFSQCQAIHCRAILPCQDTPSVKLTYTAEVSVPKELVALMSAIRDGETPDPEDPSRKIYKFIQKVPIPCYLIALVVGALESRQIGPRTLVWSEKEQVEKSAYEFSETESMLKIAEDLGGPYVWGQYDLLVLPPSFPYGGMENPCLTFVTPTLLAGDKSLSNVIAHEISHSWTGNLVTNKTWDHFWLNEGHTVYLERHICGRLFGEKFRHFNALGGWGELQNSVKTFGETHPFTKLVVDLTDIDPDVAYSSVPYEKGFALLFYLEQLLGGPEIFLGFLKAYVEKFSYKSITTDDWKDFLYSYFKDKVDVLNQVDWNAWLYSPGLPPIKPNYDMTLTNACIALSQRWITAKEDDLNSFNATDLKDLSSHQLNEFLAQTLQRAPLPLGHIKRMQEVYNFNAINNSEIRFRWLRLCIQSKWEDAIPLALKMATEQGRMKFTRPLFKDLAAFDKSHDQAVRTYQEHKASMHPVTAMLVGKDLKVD
Briefly: LTA4H enzyme assay (cleavage of Arg-AMC, fluorescence). In kind it is biochemical. Conditions: LTA4H enzyme 1 nM, Arg-AMC substrate 50 μM, room temperature 1 h. In outline: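 Recombinant human enzyme (1 nM final) was incubated with Arg-AMC substrate (50 μM final) and compound for 1 h at room temperature in 50 mM Tris-HCl pH 7.5, 100 mM KCl, 0.5% BSA. Aminomethylcoumarin release was detected by fluorescence at 380 nm excitation/460 nm emission.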

Molecules are shown by their SMILES. Where only a bound is given, the exact number is not on record here.

As for `c1cc(-c2ccc(Oc3ccc(OC4CCOCC4)cc3)cc2)[nH]n1` [Example 89, 5-{4-[4-(tetrahydro-2H-pyran-4-yloxy)phenoxy]phenyl}-1H-pyrazole], the IC50 is 1770 nM in experiment [1] and 4.8 nM against human LTA4 hydrolase.
As to `c1cc(-c2ccc(Oc3ccc(O[C@H]4CCOC4)cc3)cc2)[nH]n1` [Example 90, 5-(4-{4-[(3S)-tetrahydrofuran-3-yloxy]phenoxy}phenyl)-1H-pyrazole], the IC50 in experiment [1] came out at 777 nM; at human LTA4 hydrolase, 2.4 nM.
With `c1cc(-c2ccc(Oc3ccc(OCC4CCCCO4)cc3)cc2)[nH]n1` (centres unmarked) [Example 91, 5-{4-[4-(tetrahydro-2H-pyran-2-ylmethoxy)phenoxy]phenyl}-1H-pyrazole], the IC50 in experiment [1] is at least 5000 nM; against human LTA4 hydrolase it was 10.7 nM.
For the compound `c1cc(-c2ccc(Oc3ccc(OCC4CCOC4)cc3)cc2)[nH]n1` (centres unmarked) [Example 92, 5-{4-[4-(tetrahydrofuran-3-ylmethoxy)phenoxy]phenyl}-1H-pyrazole], the IC50 was determined as 1200 nM in experiment [1] and 3.3 nM on human LTA4 hydrolase.
In the case of `c1cc(-c2ccc(Oc3ccc(OCCC4CCCCO4)cc3)cc2)[nH]n1` (centres unmarked) [Example 93, 5-(4-{4-[2-(tetrahydro-2H-pyran-2-yl)ethoxy]phenoxy]phenyl)-1H-pyrazole], the figures for the IC50 (in experiment [1]; on human LTA4 hydrolase) were 4600 nM and 26.9 nM, respectively.
Consider `c1cc(-c2ccc(Oc3ccc(OC4CCCOC4)cc3)cc2)[nH]n1` (centres unmarked) [Example 94, 5-{4-[4-(tetrahydro-2H-pyran-3-yloxy)phenoxy]phenyl}-1H-pyrazole], for which the figures for the IC50 (in experiment [1]; on human LTA4 hydrolase) were 2000 nM and 14.1 nM, respectively.
In the case of `O=C1CC[C@@H](Oc2ccc(Oc3ccc(-c4ccn[nH]4)nc3)cc2)CN1` [Example 95, (5R)-5-(4-{[6-(1H-pyrazol-5-yl)pyridin-3-yl]oxy}phenoxy)piperidin-2-one], the IC50 came to 367 nM in experiment [1] and 1.6 nM against human LTA4 hydrolase.
